Laboratory results as given in patent US4970297A, “Transglutaminase inhibitors” (Syntex (U.S.A.) Inc., priority 1987, dated 1990).

Tests used:
Nematospiroides dubius = assay: In vivo assay of anthelmintic activity, mixed helminth infection in mice; set-up: species or system Swiss-Webster mice; details: 1000 ppm in the food ad lib for 11 days from 24 hours post-infection, sacrificed on day 17
Method: (§1) Male, Swiss-Webster mice were challenged with a mixed helminth infection of Nematospiroides dubius and Hymenolepsis nana. Starting 24 hours post-infection (p.i.) mice were treated for 11 days ad lib with N-Benzyloxycarbonyl-D,L-β-(3-bromo-4,5-dihydroisoxazol-5-yl)-alanine benzylamide mixed in the food at 1000 ppm. Animals were sacrificed on day 17 to examine parasite burden in the intestine.

Hymenolepsis nana = assay: as above; set-up: species or system Swiss-Webster mice; details: 1000 ppm in the food ad lib for 11 days from 24 hours post-infection, sacrificed on day 17
Method: as §1

[1] = test system: Nippostronglus braziliensis; assay: In vitro assay against Nippostronglus braziliensis; type: cell-based; set-up: key: A compound is defined as active if (1) cast formation is reduced 50 percent or more or (2) viability and motility together are reduced 50 percent or more; details: 50 μg/ml, fourth larval stage (L4), incubated at 37° C. for seven days
Method: N-Benzyloxycarbonyl-D,L-β-(3-bromo-4,5-dihydroisoxazol-5-yl)-alanine benzylamide was active against Nippostronglus braziliensis in an in vitro assay.
Rats were inoculated with 5,000 to 6,000 N. braziliensis third stage larvae subcutaneously. Seventy-two hours later rats were sacrificed and the fourth stage larvae harvested. Each drug was tested at 50 μg/ml against the fourth larval stage (L4) of N. braziliensis at approximately 50 L4/well. This mixture was incubated at 37° C. for a total of seven days and then read for activity. Parameters used to determine drug activity are motility, percent viability, and percent of L4 able to molt to the adult (percent cast formation). A compound is defined as active if (1) cast formation is reduced 50 percent or more or (2) viability and motility together are reduced 50 percent or more.

tissue transglutaminase = biological target: T1, tissue transglutaminase (UniProt P08587); assay: Inactivation of tissue transglutaminase; type: biochemical
T1 construct: Liver transglutaminase from guinea pig liver was isolated and partially purified; from tissue; host or cells: guinea pig liver
Method: Liver transglutaminase from guinea pig liver was isolated and partially purified according to the procedure outlined in "Methods of Enzymology", Vol. 113, pp. 358-375, with minor modifications. The 105,000×g supernatant from the 15,000×g supernatant of a crude homogenate of guinea pig liver, was chromatographed on DEAE-Sepharose CL-6B. Enzymatic activity was eluted with a 0-1.0M NaCl gradient in 5 mM TRIS, 2 mM EDTA pH 7.5 buffer. Fractions containing activity were pooled, dialyzed against 50 mM TRIS-HCl, 2 mM EDTA, pH 7.5 buffer and concentrated, when necessary, by Amicon Ultrafiltration (PM 10 filters).
The activity and inhibition of guinea pig liver transglutaminase was assayed by measurement of the rate of incorporation of hydroxylamine into simple glutaminyl peptide derivatives, preferably CBZ-(L)-Glutaminyl-Glycine (see Folk and Chung, "Methods in Enzymology", Vol. 113, pp. 359-361). […]
Prior to activity determination, guinea pig liver transglutaminase was activated anaerobically with 5 mM calcium chloride and 1 mM dithiothreitol at 25° C. […] The concentration of product formed after 10-25 minutes incubation was determined by quenching with 250 microliters of acidic ferric chloride reagent and measurement of the absorbance at 525 nm using a Gilford 2600 UV/VIS spectrophotometer. Typical uninhibited samples provided sufficient product for 0.5 absorbance units at 525 nm. […]

[2] = test system: galactose-induced cataracts; assay: Cataract therapy: galactose-induced cataracts; type: in vivo; details: oral route in the diet at 0.05%
human T-lymphocyte = assay: Human T-lymphocyte transformation in vitro; type: cell-based; details: at 10^-6 in vitro
Description: Transglutaminase inactivator, N-benzyloxycarbonyl-D,L-β-(3-bromo-4,5-dihydroisoxazol-5-yl)-alanine (4-(ethoxycarbonyl)phenyl)amide, inhibited human T-lymphocyte transformation at 10^-6 in vitro.

transglutaminase = details: previously reported inhibitors; cited from earlier work

T1 sequence (P08587 whole entry): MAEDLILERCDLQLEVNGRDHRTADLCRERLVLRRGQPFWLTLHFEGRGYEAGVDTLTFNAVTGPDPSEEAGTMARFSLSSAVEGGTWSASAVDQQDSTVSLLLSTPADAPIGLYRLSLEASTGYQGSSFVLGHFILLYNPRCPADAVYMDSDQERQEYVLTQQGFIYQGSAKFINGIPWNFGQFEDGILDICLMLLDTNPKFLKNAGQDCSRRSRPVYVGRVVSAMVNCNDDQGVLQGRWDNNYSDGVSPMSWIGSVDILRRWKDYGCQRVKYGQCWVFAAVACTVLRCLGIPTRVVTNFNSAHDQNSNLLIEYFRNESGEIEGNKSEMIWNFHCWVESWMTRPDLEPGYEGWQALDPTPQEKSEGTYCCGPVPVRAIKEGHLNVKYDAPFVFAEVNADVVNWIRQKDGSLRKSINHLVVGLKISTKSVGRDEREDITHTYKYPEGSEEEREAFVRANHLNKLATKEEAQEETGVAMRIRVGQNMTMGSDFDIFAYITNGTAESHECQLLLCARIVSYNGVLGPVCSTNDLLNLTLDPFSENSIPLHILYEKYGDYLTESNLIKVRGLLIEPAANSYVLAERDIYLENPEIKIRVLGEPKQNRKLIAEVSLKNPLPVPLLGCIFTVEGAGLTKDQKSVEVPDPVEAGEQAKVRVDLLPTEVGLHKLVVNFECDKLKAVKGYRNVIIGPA

O=C(NC(CC1CC(Br)=NO1)C(=O)NCc1ccccc1)OCc1ccccc1 (racemic) [N-Benzyloxycarbonyl-D,L-β-(3-bromo-4,5-dihydroisoxazol-5-yl)-alanine benzylamide]
percent reduction of parasites in the intestine (Nematospiroides dubius) (Nematospiroides dubius): significant percent reduction of parasites | percent reduction of parasites in the intestine (Hymenolepsis nana) (Hymenolepsis nana): significant percent reduction of parasites | activity against Nippostronglus braziliensis (cast formation, viability and motility) [1]: active

CCOC(=O)c1ccc(NC(=O)C(CC2CC(Br)=NO2)NC(=O)OCc2ccccc2)cc1 (racemic) [N-benzyloxycarbonyl-D,L-β-(3-bromo-4,5-dihydroisoxazol-5-yl)-alanine (4-(ethoxycarbonyl)phenyl)amide]
inactivation of tissue transglutaminase (tissue transglutaminase): potent inactivator | onset of galactose-induced cataracts [2]: delayed the onset | cytotoxicity associated with the inhibition of T-lymphocyte transformation (human T-lymphocyte): not associated with cytotoxicity | inhibition of human T-lymphocyte transformation (human T-lymphocyte): inhibited

NCCSSCCN [cystamine]
concentration at which effective as transglutaminase inhibitor (transglutaminase): greater than 10^-3 M | specificity for transglutaminases (transglutaminase): lacks specificity
